Results as given in ChEMBL document CHEMBL6083210, “Exploring apoptotic induction of malabaricone A in triple-negative breast cancer cells: an acylphenol phyto-entity isolated from the fruit rind of Myristica malabarica Lam” (RSC Med Chem, 2024).
The source made the active and inactive calls. The rule behind the calls is not given here.

Legend:
MDA-MB-231 [1] = experiment: Induction of apoptosis in human MDA-MB-231 cells assessed as fold increase in caspase 3 level at 8 uM by fluorometric assay; format: functional
MDA-MB-231 [2] = experiment: Upregulation of caspase 8 protein level in human MDA-MB-231 cells at 8 uM measured after 24 hrs; format: functional, cell-based
MDA-MB-231 [3] = experiment: Upregulation of Bad protein level in human MDA-MB-231 cells at 8 uM measured after 24 hrs; format: functional, cell-based
MDA-MB-231 [4] = experiment: Induction of apoptosis in human MDA-MB-231 cells assessed as late apoptotic cells at 8 uM incubated for 24 hrs by FITC annexin V staining based analysis (reference value: 7.3%); format: functional
MDA-MB-231 [5] = experiment: Downregulation of Cdk2 level in human MDA-MB-231 cells at 6 to 10 uM by Western blot analysis; format: functional, cell-based; details: dose 6-10 µM
MDA-MB-231 [6] = experiment: Induction of morphological changes in human MDA-MB-231 cells assessed as membrane blebbing at 6 to 10 uM measured 24 hrs by EtBr-AO Live dead Assay; format: functional, cell-based; details: dose 6-10 µM
MDA-MB-231 [7] = experiment: Upregulation of Fas protein level in human MDA-MB-231 cells at 8 uM measured after 24 hrs; format: functional, cell-based
MCF-10A = experiment: Antiproliferative activity against human MCF-10A cells assessed as reduction in cell viability incubated for 24 hrs by MTT assay; format: functional, cell-based
MDA-MB-231 [8] = experiment: Induction of apoptosis in human MDA-MB-231 cells assessed as early apoptotic cells at 6 uM incubated for 24 hrs by FITC annexin V staining based analysis (reference value: 1.4%); format: functional
MDA-MB-231 [9] = experiment: Induction of apoptosis in human MDA-MB-231 cells assessed as late apoptotic cells at 6 uM incubated for 24 hrs by FITC annexin V staining based analysis (reference value: 7.3%); format: functional
MDA-MB-231 [10] = experiment: Induction of morphological changes in human MDA-MB-231 cells assessed as membrane breakage at 6 to 10 uM measured 24 hrs by EtBr-AO Live dead Assay; format: functional, cell-based; details: dose 6-10 µM
MDA-MB-231 [11] = experiment: Upregulation of TNF-beta protein level in human MDA-MB-231 cells at 8 uM measured after 24 hrs; format: functional, cell-based
MDA-MB-231 [12] = experiment: Antiproliferative activity against human MDA-MB-231 cells assessed as reduction in cell viability measured after 12 to 48 hrs by MTT assay; format: functional, cell-based; details: dose 1-50 µM, time 12-48 hrs
MDA-MB-231 [13] = experiment: Induction of apoptosis in human MDA-MB-231 cells assessed as early apoptotic cells at 8 uM incubated for 24 hrs by FITC annexin V staining based analysis (reference value: 1.4%); format: functional
MDA-MB-231 [14] = experiment: Induction of apoptosis in human MDA-MB-231 cells assessed as viable cells at 6 uM incubated for 24 hrs by FITC annexin V staining based analysis (reference value: 90.5%); format: functional; details: read-out: Activity
MDA-MB-231 [15] = experiment: Induction of apoptosis in human MDA-MB-231 cells assessed as dead cells by measuring pink coloration at 6 to 10 uM incubated for 24 hrs by APO staining based analysis; format: functional, cell-based; details: dose 6-10 µM
MDA-MB-231 [16] = experiment: Induction of cell cycle arrest in human MDA-MB-231 cells assessed as accumulation of cells at S phase at 8 uM incubated for 24 hrs by PI staining based flow cytometry analysis (reference value: 12.0%); format: functional
MDA-MB-231 [17] = experiment: Antiproliferative activity against human MDA-MB-231 cells assessed as reduction in cell viability at 1 to 50 uM by MTT assay; format: functional, cell-based; details: dose 1-50 µM, time 12-48 hrs
MDA-MB-231 [18] = experiment: Induction of apoptosis in human MDA-MB-231 cells assessed as fold increase in caspase 9 level at 8 uM by fluorometric assay; format: functional
MDA-MB-231 [19] = experiment: Induction of apoptosis in human MDA-MB-231 cells assessed as increase in green fluorescence incubated for 24 hrs by acridine orange and ethidium bromide dual staining based analysis; format: functional, cell-based; details: dose 6-10 µM
MDA-MB-231 [20] = experiment: Induction of apoptosis in human MDA-MB-231 cells assessed as early apoptotic cells at 10 uM incubated for 24 hrs by FITC annexin V staining based analysis (reference value: 1.4%); format: functional
MDA-MB-231 [21] = experiment: Upregulation of HTRA protein level in human MDA-MB-231 cells at 8 uM measured after 24 hrs; format: functional, cell-based
MDA-MB-231 [22] = experiment: Downregulation of cyclin B1 level in human MDA-MB-231 cells at 6 to 10 uM by Western blot analysis; format: functional, cell-based; details: dose 6-10 µM
MDA-MB-231 [23] = experiment: Downregulation of livin protein level in human MDA-MB-231 cells at 8 uM measured after 24 hrs; format: functional, cell-based
MDA-MB-231 [24] = experiment: Upregulation of Bid protein level in human MDA-MB-231 cells at 8 uM measured after 24 hrs; format: functional, cell-based
MDA-MB-231 [25] = experiment: Upregulation of FasL protein level in human MDA-MB-231 cells at 8 uM measured after 24 hrs; format: functional, cell-based
MDA-MB-231 [26] = experiment: Upregulation of caspase 3 protein level in human MDA-MB-231 cells at 8 uM measured after 24 hrs; format: functional, cell-based
MDA-MB-231 [27] = experiment: Upregulation of Smac protein level in human MDA-MB-231 cells at 8 uM measured after 24 hrs; format: functional, cell-based

With O=C(CCCCCCCCc1ccccc1)c1c(O)cccc1O [MALABARICONE A] the “fold change (FC)” value (MDA-MB-231 [1]) was 8.9, the Activity (MDA-MB-231 [2]) was “Active” and the Activity (MDA-MB-231 [3]) was “Active”. The Activity (MDA-MB-231 [4]) was 35.25%, the Activity (MDA-MB-231 [5]) was “Active” and the Activity (MDA-MB-231 [6]) was “Active”. The Activity (MDA-MB-231 [7]) was “Active”, the IC50 (MCF-10A) was 68.9 µM and the Activity (MDA-MB-231 [8]) was 7.3%. For the same molecule, the Activity (MDA-MB-231 [9]) was 20.4%, the Activity (MDA-MB-231 [10]) was “Active” and the Activity (MDA-MB-231 [11]) was “Active”. The Activity (MDA-MB-231 [12]) was “Dose-dependent-effect”, the Activity (MDA-MB-231 [13]) was 6.45% and the viability at 6 µM (MDA-MB-231 [14]) was 68.5%. The Activity (MDA-MB-231 [15]) was “Active”, the Activity (MDA-MB-231 [16]) was 9.1% and the Activity (MDA-MB-231 [17]) was “Time-dependent-effect”. For the same molecule, the “fold change (FC)” value (MDA-MB-231 [18]) was 3.1, the Activity (MDA-MB-231 [19]) was “Dose-dependent-effect” and the Activity (MDA-MB-231 [20]) was 4.25%. The Activity (MDA-MB-231 [21]) was “Active”, the Activity (MDA-MB-231 [22]) was “Active” and the Activity (MDA-MB-231 [23]) was “Active”. For the same molecule, the Activity (MDA-MB-231 [24]) was “Active”, the Activity (MDA-MB-231 [25]) was “Active” and the Activity (MDA-MB-231 [26]) was “Active”. For the same molecule, the Activity (MDA-MB-231 [27]) was “Active”.
